IC50 data for six molecules are collected here from patent publication US20230073777A1, “CYCLIC-AMP RESPONSE ELEMENT BINDING PROTEIN (CBP) AND/OR ADENOVIRAL E1A BINDING PROTEIN OF 300 KDA (P300) DEGRADATION COMPOUNDS AND METHODS OF USE” (CULLGEN (SHANGHAI), INC., priority 2019, published 2023).

Some results are limits rather than exact numbers.

Broadly, the IC50 is the concentration at which inhibition is half-maximal. Low values mean inhibition by little substance, high ones a need for much substance.

The first test concerns LNCaP cells. Nature of the test: LNCaP cell viability assay (CellTiter-Glo). Type of test: cell-based. The conditions noted are these: Homo sapiens, 72 h; LNCaP prostate cancer cell viability inhibition, 3 days, CellTiter-Glo (Table 2). As for the experimental part: LNCaP cells seeded in 96-well plates were treated with 10 μM GNE-781 or selected bivalent compounds, i.e. P-001, P-002, and P-019, following a 12-point 3-fold serial dilution. Three days after treatment, cell viability was determined using the CellTiter-Glo kit (Promega) following manufacturer's instructions. Cell viability was normalized to the mean values of 3 replicates of untreated cells. Dose-dependent response was analyzed following the least-squares non-linear regression method using the GraphPad Prism 5.0 software.
LNCaP cells were treated with GNE-781 or selected bivalent compounds for 3 days at indicated concentrations following a 3-fold serial dilution.
Cells were seeded at a density of 5000 cells per well in 96-well assay plates and treated with test compounds following a 12-point 3-fold serial dilution. Three days later, cell viability was determined using the CellTiter-Glo assay kit according to the manufacturer's instructions. The dose-response curves were determined and IC50 values were calculated using the GraphPad Prism software following a nonlinear regression (least squares fit) method.
On the technique in general: ATP-based viability assays read luminescence as a measure of living cells.
On to `CNC(=O)N1CCc2c(c(N3CCCc4cc(-c5cnn(C)c5)c(C(F)F)cc43)nn2C2CCN(C(=O)CNc3cccc4c3C(=O)N(C3CCC(=O)NC3=O)C4=O)CC2)C1` (stereo not drawn) [P-013], for which the IC50 stood at 0.105 µM.

The same test, now with this note: Homo sapiens, 72 h; LNCaP prostate cancer cell viability inhibition, 3 days, CellTiter-Glo (Table 3).
As to `CNC(=O)N1CCc2c(c(N3CCCc4cc(-c5cnn(CC(=O)NCCOCCC(=O)N[C@H](C(=O)N6C[C@H](O)CC6C(=O)NCc6ccc(-c7scnc7C)cc6)C(C)(C)C)c5)c(C(F)F)cc43)nn2C2CCOCC2)C1` (stereo in doubt) [P-074, 3-(7-(Difluoromethyl)-6-(1-(2-((2-(3-(((S)-1-((2S,4R)-4-hydroxy-2-((4-(4-methylthiazol-5-yl)benzyl)carbamoyl)pyrrolidin-1-yl)-3,3-dimethyl-1-oxobutan-2-yl)amino)-3-oxopropoxy)ethyl)amino)-2-oxoethyl)-1H-pyrazol-4-yl)-3,4-dihydroquinolin-1(2H)-yl)-N-methyl-1-(tetrahydro-2H-pyran-4-yl)-1,4,6,7-tetrahydro-5H-pyrazolo[4,3-c]pyridine-5-carboxamide], the IC50 was greater than 10 µM.
The molecule `CNC(=O)N1CCc2c(c(N3CCCc4cc(-c5cnn(CC(=O)NCCOCCOCCOCCOCCOCCC(=O)N[C@H](C(=O)N6C[C@H](O)CC6C(=O)NCc6ccc(-c7scnc7C)cc6)C(C)(C)C)c5)c(C(F)F)cc43)nn2C2CCOCC2)C1` (stereo in doubt) [P-082, 3-(7-(Difluoromethyl)-6-(1-((S)-23-((2S,4R)-4-hydroxy-2-((4-(4-methylthiazol-5-yl)benzyl)carbamoyl)pyrrolidine-1-carbonyl)-24,24-dimethyl-2,21-dioxo-6,9,12,15,18-pentaoxa-3,22-diazapentacosyl)-1H-pyrazol-4-yl)-3,4-dihydroquinolin-1(2H)-yl)-N-methyl-1-(tetrahydro-2H-pyran-4-yl)-1,4,6,7-tetrahydro-5H-pyrazolo[4,3-c]pyridine-5-carboxamide] registered an IC50 greater than 10 µM.
Same read-out and setting: next, `CNC(=O)N1CCc2c(c(N3CCCc4cc(-c5cnn(CC(=O)NCCOCCOCC(=O)N[C@H](C(=O)N6C[C@H](O)CC6C(=O)NCc6ccc(-c7scnc7C)cc6)C(C)(C)C)c5)c(C(F)F)cc43)nn2C2CCOCC2)C1` (stereo in doubt) [P-083, 3-(7-(Difluoromethyl)-6-(1-((S)-13-((2S,4R)-4-hydroxy-2-((4-(4-methylthiazol-5-yl)benzyl)carbamoyl)pyrrolidine-1-carbonyl)-14,14-dimethyl-2,11-dioxo-6,9-dioxa-3,12-diazapentadecyl)-1H-pyrazol-4-yl)-3,4-dihydroquinolin-1(2H)-yl)-N-methyl-1-(tetrahydro-2H-pyran-4-yl)-1,4,6,7-tetrahydro-5H-pyrazolo[4,3-c]pyridine-5-carboxamide]: greater than 10 µM; `CNC(=O)N1CCc2c(c(N3CCCc4cc(-c5cnn(C)c5)c(C(F)F)cc43)nn2C2CCN(C(=O)CCCCC#Cc3cccc4c3C(=O)N(C3CCC(=O)NC3=O)C4)CC2)C1` (stereo not drawn) [P-094, 3-(7-(Difluoromethyl)-6-(1-methyl-1H-pyrazol-4-yl)-3,4-dihydroquinolin-1(2H)-yl)-1-(1-(7-(2-(2,6-dioxopiperidin-3-yl)-3-oxoisoindolin-4-yl)hept-6-ynoyl)piperidin-4-yl)-N-methyl-1,4,6,7-tetrahydro-5H-pyrazolo[4,3-c]pyridine-5-carboxamide]: 0.228 µM.
Molecule `CNC(=O)N1CCc2c(c(N3CCCc4cc(-c5cnn(C)c5)c(C(F)F)cc43)nn2C2CCN(CCCCCC#Cc3cccc4c3C(=O)N(C3CCC(=O)NC3=O)C4=O)CC2)C1` (stereo not drawn) [P-098, 3-(7-(Difluoromethyl)-6-(1-methyl-1H-pyrazol-4-yl)-3,4-dihydroquinolin-1(2H)-yl)-1-(1-(7-(2-(2,6-dioxopiperidin-3-yl)-1,3-dioxoisoindolin-4-yl)hept-6-yn-1-yl)piperidin-4-yl)-N-methyl-1,4,6,7-tetrahydro-5H-pyrazolo[4,3-c]pyridine-5-carboxamide] showed an IC50 of 1.07 µM.
